Each molecule was assayed on VR1 receptor (assay: High throughput calcium imaging assay (Fura2, Flex Station) of VR1 antagonists, pH 5.1 stimulus). Details: 1 uM compound; inhibition of calcium ion influx induced by capsaicin stimulation.
Format: cell-based
Description: Therefore the functional activity of compounds at the VR1 receptor may be determined by measuring changes in intracellular calcium levels in 293 cells expressing capsaicin-insensitive VR1 receptor variants. A dual wavelength ratiometric dye, Fura2, was used as an indicator of relative levels of calcium ions in a 96 well format using a bench top scanning fluorometer with integrated fluidics and temperature control (Flex Station, Molecular Devices).
293 cells were grown on PDL coated 96-well black-walled plates, in the presence of a DMEM medium containing 5% Penstrep, 5% Glutamax, 200 ug/mL Hygromycin, 5 μg/mL Blasticide and 10% heat inactivated FBS. Prior to assay, the cells were loaded with 5 μg/mL Fura2 in normal saline solution at 37° C. for 40 minutes. Cells were then washed with normal saline to remove the dye.
The assay consists of two stages; a pre-treatment phase followed by a treatment phase.
50 μl of a compound solution was added to the cells (Pre-treatment). Immediately following, 50 μl of the test compound in a saline solution at pH 5.1 was added. Fura2 was excited at 340 and 380 nM to indicate relative calcium concentration. Changes in wavelength measurements were made throughout the course of the experiment in 4 second intervals over a period of 3 minutes. Responses were measured as peak fluorescence ratio after test compound addition minus baseline fluorescence ratio prior to pre-treatment and were calculated using SoftMaxPro softwareData were expressed as percentage inhibition calculated using Excel as follows: [formula]
With COc1cc(C(=O)Nc2ccncn2)ccc1-c1ncccc1Cl [Compound 225] the “% Inhibition @ 1 uM” value was “+ + (“+ +” compound exhibited 25-50% inhibition of calcium ion influx induced by capsaicin stimulation.)”. CCCCc1ccc(NC(=O)c2ccc(-c3ncccc3Cl)cn2)cc1 [Compound 302] was tested, and the “% Inhibition @ 1 uM” value was “+ + + (“+ + +” compound exhibited 50-75% inhibition of calcium ion influx induced by capsaicin stimulation.)”. In the case of Cc1cc(NC(=O)c2ccc(-c3ncccc3Cl)cn2)nc(C)n1 [Compound 326], the “% Inhibition @ 1 uM” value is reported as “+ (“+” compound exhibited 0-25% inhibition of calcium ion influx induced by capsaicin stimulation.)”. O=C(Nc1cccc(Br)c1)c1ccc(-c2ncccc2Cl)cc1F [Compound 83] was tested, and the “% Inhibition @ 1 uM” value was “+ + + + (compound exhibited 75% or greater inhibition of calcium ion influx induced by capsaicin stimulation)”. O=C(Nc1cc[nH]n1)c1ccc(-c2ncccc2Cl)cc1 [Compound 9] was tested, and the “% Inhibition @ 1 uM” value was “+ (compound exhibited 0-25% inhibition of calcium ion influx induced by capsaicin stimulation)”. For COc1cccc(NC(=O)c2ccc(-c3ncccc3Cl)cc2)c1 [Compound 2], the “% Inhibition @ 1 uM” value was “+ (compound exhibited 0-25% inhibition of calcium ion influx induced by capsaicin stimulation)”. With O=C(Nc1ccc(Cl)nc1)c1ccc(-c2ncccc2Cl)c(F)c1 [Compound 152] the “% Inhibition @ 1 uM” value was “+ (compound exhibited 0-25% inhibition of calcium ion influx induced by capsaicin stimulation)”. In the case of COc1cc(C(=O)Nc2ccc(N3CCNCC3)c(Cl)c2)ccc1-c1ncccc1Cl [Compound 259], the “% Inhibition @ 1 uM” value is reported as “+ (“+” compound exhibited 0-25% inhibition of calcium ion influx induced by capsaicin stimulation.)”. COc1cc(C(=O)Nc2ccc(Br)cn2)ccc1-c1ncccc1Cl [Compound 226] was tested, and the “% Inhibition @ 1 uM” value was “+ (“+” compound exhibited 0-25% inhibition of calcium ion influx induced by capsaicin stimulation.)”. CCCCc1ccc(NC(=O)c2ccc(-c3ncccc3Cl)cc2)cc1 [Compound 26] was tested, and the “% Inhibition @ 1 uM” value was “+ + (compound exhibited 25-50% inhibition of calcium ion influx induced by capsaicin stimulation)”. In the case of CCn1c2ccccc2c2cc(NC(=O)c3ccc(-c4ncccc4Cl)cn3)ccc21 [Compound 328], the “% Inhibition @ 1 uM” value is reported as “+ + + + (“+ + + +” compound exhibited 75% or greater inhibition of calcium ion influx induced by capsaicin stimulation.)”. In the case of COc1cc(C(=O)Nc2cccc(OC(F)(F)F)c2)ccc1-c1ncccc1Cl [Compound 252], the “% Inhibition @ 1 uM” value is reported as “+ (“+” compound exhibited 0-25% inhibition of calcium ion influx induced by capsaicin stimulation.)”. With CCOC(=O)c1ccc(NC(=O)c2ccc(-c3ncccc3Cl)cn2)cc1 [Compound 333] the “% Inhibition @ 1 uM” value was “+ (“+” compound exhibited 0-25% inhibition of calcium ion influx induced by capsaicin stimulation.)”. COc1cc(C(=O)Nc2ccc(C#N)c(Cl)c2)ccc1-c1ncccc1Cl [Compound 248] was tested, and the “% Inhibition @ 1 uM” value was “+ + + + (“+ + + +” compound exhibited 75% or greater inhibition of calcium ion influx induced by capsaicin stimulation.)”. With O=C(Nc1ccncc1)c1ccc(-c2ncccc2Cl)c(F)c1 [Compound 140] the “% Inhibition @ 1 uM” value was “+ + + + (compound exhibited 75% or greater inhibition of calcium ion influx induced by capsaicin stimulation)”. O=C(Nc1cccnc1Cl)c1ccc(-c2ncccc2Cl)cc1 [Compound 30] was tested, and the “% Inhibition @ 1 uM” value was “+ + (compound exhibited 25-50% inhibition of calcium ion influx induced by capsaicin stimulation)”. With O=C(Nc1ccc(Cl)c(C(=O)O)c1)c1ccc(-c2ncccc2Cl)c(F)c1 [Compound 166] the “% Inhibition @ 1 uM” value was “+ + + + (compound exhibited 75% or greater inhibition of calcium ion influx induced by capsaicin stimulation)”. In the case of Cc1ccc(NC(=O)c2ccc(-c3ncccc3Cl)c(F)c2)c(C)c1 [Compound 128], the “% Inhibition @ 1 uM” value is reported as “+ + + + (compound exhibited 75% or greater inhibition of calcium ion influx induced by capsaicin stimulation)”. For COc1cc(C(=O)Nc2ccncc2)ccc1-c1ncccc1Cl [Compound 218], the “% Inhibition @ 1 uM” value was “+ + + + (“+ + + +” compound exhibited 75% or greater inhibition of calcium ion influx induced by capsaicin stimulation.)”. With CC(C)Oc1cccc(NC(=O)c2ccc(-c3ncccc3Cl)cn2)c1 [Compound 345] the “% Inhibition @ 1 uM” value was “+ (“+” compound exhibited 0-25% inhibition of calcium ion influx induced by capsaicin stimulation.)”. In the case of CCOc1ccc(NC(=O)c2ccc(-c3ncccc3Cl)cc2)cc1 [Compound 281], the “% Inhibition @ 1 uM” value is reported as “+ (“+” compound exhibited 0-25% inhibition of calcium ion influx induced by capsaicin stimulation.)”. For O=C(Nc1ccccc1Cl)c1ccc(-c2ncccc2Cl)cn1 [Compound 297], the “% Inhibition @ 1 uM” value was “+ + + + (“+ + + +” compound exhibited 75% or greater inhibition of calcium ion influx induced by capsaicin stimulation.)”. In the case of COc1cc(C(=O)Nc2ccc(F)c(F)c2)ccc1-c1ncccc1Cl [Compound 254], the “% Inhibition @ 1 uM” value is reported as “+ + + (“+ + +” compound exhibited 50-75% inhibition of calcium ion influx induced by capsaicin stimulation.)”. For O=C(Nc1ccncc1)c1ccc(-c2ncccc2Cl)cn1 [Compound 313], the “% Inhibition @ 1 uM” value was “+ + + (“+ + +” compound exhibited 50-75% inhibition of calcium ion influx induced by capsaicin stimulation.)”. For COc1cc(C(=O)Nc2ccc3cn[nH]c3c2)ccc1-c1ncccc1Cl [Compound 247], the “% Inhibition @ 1 uM” value was “+ + (“+ +” compound exhibited 25-50% inhibition of calcium ion influx induced by capsaicin stimulation.)”. In the case of CC(C)Oc1cccc(NC(=O)c2ccc(-c3ncccc3Cl)cc2)c1 [Compound 278], the “% Inhibition @ 1 uM” value is reported as “+ (“+” compound exhibited 0-25% inhibition of calcium ion influx induced by capsaicin stimulation.)”. In the case of O=C(Nc1ccc(N2CCNCC2)c(Cl)c1)c1ccc(-c2ncccc2Cl)cc1 [Compound 284], the “% Inhibition @ 1 uM” value is reported as “+ + + (“+ + +” compound exhibited 50-75% inhibition of calcium ion influx induced by capsaicin stimulation.)”. For CN1CCCc2ccc(NC(=O)c3ccc(-c4ncccc4Cl)cc3)cc21 [Compound 287], the “% Inhibition @ 1 uM” value was “+ (“+” compound exhibited 0-25% inhibition of calcium ion influx induced by capsaicin stimulation.)”. For COc1cc(C(=O)Nc2cc(OC)c(OC)c(OC)c2)ccc1-c1ncccc1Cl [Compound 246], the “% Inhibition @ 1 uM” value was “+ + + + (“+ + + +” compound exhibited 75% or greater inhibition of calcium ion influx induced by capsaicin stimulation.)”. For CCC1c2ccccc2-c2cc(NC(=O)c3ccc(-c4ncccc4Cl)cc3)ccc21 (stereo not drawn) [Compound 55], the “% Inhibition @ 1 uM” value was “+ + (compound exhibited 25-50% inhibition of calcium ion influx induced by capsaicin stimulation)”. For COc1cc(C(=O)Nc2ccccc2C#N)ccc1-c1ncccc1Cl [Compound 192], the “% Inhibition @ 1 uM” value was “+ (compound exhibited 0-25% inhibition of calcium ion influx induced by capsaicin stimulation)”. COc1cc(C(=O)Nc2ccc3ncccc3c2)ccc1-c1ncccc1Cl [Compound 233] was tested, and the “% Inhibition @ 1 uM” value was “+ + + + (“+ + + +” compound exhibited 75% or greater inhibition of calcium ion influx induced by capsaicin stimulation.)”. For CC(C)c1cccc(NC(=O)c2ccc(-c3ncccc3Cl)cc2F)c1 [Compound 69], the “% Inhibition @ 1 uM” value was “+ (compound exhibited 0-25% inhibition of calcium ion influx induced by capsaicin stimulation)”. O=C(Nc1cccc(Cl)c1)c1ccc(-c2ncccc2Cl)cc1F [Compound 71] was tested, and the “% Inhibition @ 1 uM” value was “+ (compound exhibited 0-25% inhibition of calcium ion influx induced by capsaicin stimulation)”. Cc1cc(C)nc(NC(=O)c2ccc(-c3ncccc3Cl)cc2)c1 [Compound 37] was tested, and the “% Inhibition @ 1 uM” value was “+ (compound exhibited 0-25% inhibition of calcium ion influx induced by capsaicin stimulation)”. With COc1cc(C(=O)NC(C)(C)C)ccc1-c1ncccc1Cl [Compound 187] the “% Inhibition @ 1 uM” value was “+ (compound exhibited 0-25% inhibition of calcium ion influx induced by capsaicin stimulation)”. For O=C(Nc1ccnc(Cl)c1)c1ccc(-c2ncccc2Cl)cc1 [Compound 33], the “% Inhibition @ 1 uM” value was “+ + + + (compound exhibited 75% or greater inhibition of calcium ion influx induced by capsaicin stimulation)”. In the case of COc1ccc(NC(=O)c2ccc(-c3ncccc3Cl)cc2)cc1Cl [Compound 17], the “% Inhibition @ 1 uM” value is reported as “+ (compound exhibited 0-25% inhibition of calcium ion influx induced by capsaicin stimulation)”. For O=C(Nc1ncc(C(F)(F)F)cc1Cl)c1ccc(-c2ncccc2Cl)cc1F [Compound 98], the “% Inhibition @ 1 uM” value was “+ (compound exhibited 0-25% inhibition of calcium ion influx induced by capsaicin stimulation)”. For COc1ccc(NC(=O)c2ccc(-c3ncccc3Cl)cc2)cc1 [Compound 5], the “% Inhibition @ 1 uM” value was “+ + (compound exhibited 25-50% inhibition of calcium ion influx induced by capsaicin stimulation)”. For O=C(Nc1ccccc1)c1ccc(-c2ncccc2Cl)cc1 [Compound 3], the “% Inhibition @ 1 uM” value was “+ (compound exhibited 0-25% inhibition of calcium ion influx induced by capsaicin stimulation)”. O=C(Nc1ccc2c(c1)OCCO2)c1ccc(-c2ncccc2Cl)cc1 [Compound 1] was tested, and the “% Inhibition @ 1 uM” value was “+ + (compound exhibited 25-50% inhibition of calcium ion influx induced by capsaicin stimulation)”. For O=C(Nc1cccc(OC(F)(F)F)c1)c1ccc(-c2ncccc2Cl)cc1 [Compound 277], the “% Inhibition @ 1 uM” value was “+ (“+” compound exhibited 0-25% inhibition of calcium ion influx induced by capsaicin stimulation.)”. In the case of O=C(Nc1ccc(Cl)c(C(F)(F)F)c1)c1ccc(-c2ncccc2Cl)cc1 [Compound 20], the “% Inhibition @ 1 uM” value is reported as “+ + + (compound exhibited 50-75% inhibition of calcium ion influx induced by capsaicin stimulation)”. CCCOc1ccc(NC(=O)c2ccc(-c3ncccc3Cl)cn2)cc1 [Compound 341] was tested, and the “% Inhibition @ 1 uM” value was “+ (“+” compound exhibited 0-25% inhibition of calcium ion influx induced by capsaicin stimulation.)”. COc1ccc(NC(=O)c2ccc(-c3ncccc3Cl)c(F)c2)cc1O [Compound 170] was tested, and the “% Inhibition @ 1 uM” value was “+ + (compound exhibited 25-50% inhibition of calcium ion influx induced by capsaicin stimulation)”. With COc1ccc(NC(=O)c2ccc(-c3ncccc3Cl)cn2)cn1 [Compound 324] the “% Inhibition @ 1 uM” value was “+ + (“+ +” compound exhibited 25-50% inhibition of calcium ion influx induced by capsaicin stimulation.)”. For COc1cc(C(=O)Nc2ccccc2)ccc1-c1ncccc1Cl [Compound 189], the “% Inhibition @ 1 uM” value was “+ (compound exhibited 0-25% inhibition of calcium ion influx induced by capsaicin stimulation)”. With O=C(Nc1ccc(C(F)(F)F)cc1)c1ccc(-c2ncccc2Cl)cn1 [Compound 308] the “% Inhibition @ 1 uM” value was “+ (“+” compound exhibited 0-25% inhibition of calcium ion influx induced by capsaicin stimulation.)”. For COc1ccc(NC(=O)c2ccc(-c3ncccc3Cl)c(OC)c2)cc1 [Compound 190], the “% Inhibition @ 1 uM” value was “+ (compound exhibited 0-25% inhibition of calcium ion influx induced by capsaicin stimulation)”. COc1cc(C(=O)Nc2cccnc2)ccc1-c1ncccc1Cl [Compound 219] was tested, and the “% Inhibition @ 1 uM” value was “+ (“+” compound exhibited 0-25% inhibition of calcium ion influx induced by capsaicin stimulation.)”.

From patent US20050197364A1, “Amide compounds as ion channel ligands and uses thereof” (priority 2003, published 2005)
